The test system of series [1] is dedifferentiated liposarcoma. The series is described as follows: Clinical trial in dedifferentiated liposarcoma: efficacy (RECIST 1.1). It counts as in vivo, human. Conditions: 180 mg oral once daily. The text has this: (§1) In this study, a randomized, double-blind, placebo-controlled parallel trial design or a single arm trial design was employed. For the parallel control trial, after all patients signed the informed consent, subjects eligible for enrollment by screening were randomized (1:1) into two groups, i.e., a test group given the capsule of the compound of formula I and a control group given the placebo of the capsule of the compound of formula I, with 4 weeks (28 days) being 1 cycle; for the single arm trial, the administration regimen was the same as that for the test group of the parallel control trial. The efficacy and safety of the capsule of the compound of formula I in the treatment of dedifferentiated liposarcoma was evaluated by the clinical trials of the present disclosure.
(§2) Hemoglobin (HGB) ≥90.0 g/L; • b. Absolute neutrophil count (ANC) ≥1.5×10^9/L; • c. Platelet count (PLT) ≥90×10^9/L; • 2) Biochemical examination criteria: • a. Total bilirubin (TBIL) ≤1.5×upper limit of normal ULN; for patients with Gilbert syndrome, ≤3×ULN; • b. Alanine aminotransferase (ALT) and aspartate aminotransferase (AST) ≤3×ULN. If liver metastasis is accompanied, ALT and AST ≤5×ULN; • c.
(§3) Capsules of the compound of formula (I): strength: 50 mg or 60 mg, provided by Chia Tai Tianqing Pharmaceutical Group Co., Ltd.
(§4) Capsules of the compound of formula (I): 180 mg/each administration (based on the compound of formula (I)), oral administration at fasting, once daily, and 28 consecutive days of administration as one treatment cycle. Placebo of the capsule of the compound of formula (I): 0 mg/each administration (based on the compound of formula (I)), oral administration at fasting, once daily, and 28 consecutive days of administration as one treatment cycle.
Efficacy evaluation criteria: disease state was determined using the RECIST 1.1 criteria.

For series [2], the system named is dedifferentiated liposarcoma. The series is described as follows: Clinical trial in dedifferentiated liposarcoma: safety (NCI-CTC AE 5.0). It counts as in vivo, human. Conditions: patients, 28-day cycle.
Excerpt: as §1, §2, §3, §4
Safety evaluation criteria: the severity of adverse events was determined using the NCI-CTC AE 5.0 criteria. Adverse event record forms including time of occurrence, severity, relevance to the studied treatment, duration, measures taken, and the final state of the subject should be faithfully filled out during the trial.

The mark [3] stands for this setting: capsules 180 mg oral once daily.

On to `CC(C)c1c2cc(-c3nc(Nc4ccc(N5CCNCC5)cn4)ncc3F)ccc2nn1C` [compound of formula (I)], for which the “PFS, OS, ORR, DCR and DOR of the patients that could be evaluated” value in series [1] (28-day cycle) was “all good”. Besides, in series [1] (15 subjects who had achieved the evaluation of C3 (12 weeks) efficacy), the “12-week PFS rate” value is on record as 60%. Besides, the “patients who achieved 12-week PFS” value in series [1] (of the 15 subjects evaluated at C3 (12 weeks)) is on record as 9 patients. The “Gastrointestinal reactions (diarrhea, vomiting, and the like), grade” value in series [2] (capsules 180 mg oral at fasting once daily, mainly this grade, controlled after symptomatic treatment) was 1-2 grade. In series [2] (setting [3]), the “total incidence rate of TEAEs of grade 3 or above” value is 9% and the total safety entry is “good”.
